From US20100204150A1, “USE OF A PEPTIDE AS A THERAPEUTIC AGENT” (priority 2007, published 2010)
Where no end group is shown, it is not given here. [ ]: non-standard residue; d: D form.

Tested on: drug-resistant Mycobacterium tuberculosis
Experiment: Mycobacterium tuberculosis assay
Type: cell-based
Details: 10 micrograms per ml; seven days; strain resistant to PAS, streptomycin and INH; combination 0.95:1.05 mole and all ratios 1:100 to 100:1

Row | Substance | inhibition of the growth of Mycobacterium tuberculosis [%]
1 | HPFHL[dL]VY-OH [Peptide 1] | 100
2 | Ac-Arg-Phe-Met-Trp-Met-Arg-NH2 (Ac-RFMWMR-NH2) [Peptide 2] | 100
